Assay results as given in article PMC9661696, “Inhibition of β-Amyloid Aggregation in Alzheimer’s Disease: The Key Role of (Pro)electrophilic Warheads” (ACS Medicinal Chemistry Letters, 2022).

Tests used:
Aβ42 (β-amyloid peptide) [1] = target: T1, Aβ42 (β-amyloid peptide) (Homo sapiens, UniProt P05067); test: inhibition of Aβ[…] self-aggregation, MS monomer quantification at […] (also ThT assay); format: biochemical; conditions: read-out: inhibition of Aβ42 self-aggregation / % inhibition by MS ± SD [I] = 50 μM ^b
T1 construct: gene APP; Aβ42

Aβ42 (β-amyloid peptide) [2] = target: T1, Aβ42 (β-amyloid peptide); test: MS and LC-MS/MS detection of covalent adduct with Aβ[…]; ThT aggregation assay (IC50); format: biochemical

T1 sequence (P05067 672-713): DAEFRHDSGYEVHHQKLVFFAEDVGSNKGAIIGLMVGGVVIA

inhibition at 50 µM (Aβ42 (β-amyloid peptide) [1])	IC50 (Aβ42 (β-amyloid peptide) [2])	Compound
56.9%	–	CCCSC(=O)/C=C/c1ccc(O)c(O)c1 [compound 1]
–	10.2 µM	CCCSC(=O)/C=C/c1cc(O)ccc1O [compound 3, para-hydroquinone 3]
